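Abbreviation: GI50, concentration required for 50% inhibition of growth. Definition used: TGI = concentration required for complete inhibition of growth.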
Tests used:
Assay in all cases: DTP human tumour cell line panel, 384-well format
786-0 renal = system: 786-0 renal
A498 renal = system: A498 renal
A549 NSCLC = system: A549 NSCLC
ACHN renal = system: ACHN renal
BT-549 breast = system: BT-549 breast
CAKI-1 renal = system: CAKI-1 renal
CCRF-CEM leukemia = system: CCRF-CEM leukemia
COLO 205 colon = system: COLO 205 colon
DU-145 prostate = system: DU-145 prostate
EKVX NSCLC = system: EKVX NSCLC
HCC-2998 colon = system: HCC-2998 colon
HCT-116 colon = system: HCT-116 colon
HCT-15 colon = system: HCT-15 colon
HL-60(TB) leukemia = system: HL-60(TB) leukemia
HOP-62 NSCLC = system: HOP-62 NSCLC
HOP-92 NSCLC = system: HOP-92 NSCLC
HS 578T breast = system: HS 578T breast
HT29 colon = system: HT29 colon
IGROV1 ovarian = system: IGROV1 ovarian
K-562 leukemia = system: K-562 leukemia
KM12 colon = system: KM12 colon
LOX IMVI melanoma = system: LOX IMVI melanoma
M14 melanoma = system: M14 melanoma
MALME-3M melanoma = system: MALME-3M melanoma
MCF7 breast = system: MCF7 breast
MDA-MB-231 breast = system: MDA-MB-231 breast
MDA-MB-435 melanoma = system: MDA-MB-435 melanoma
MDA-MB-468 breast = system: MDA-MB-468 breast
MOLT-4 leukemia = system: MOLT-4 leukemia
NCI-H226 lung = system: NCI-H226 lung
NCI-H23 lung = system: NCI-H23 lung
NCI-H322M lung = system: NCI-H322M lung
NCI-H460 NSCLC = system: NCI-H460 NSCLC
NCI-H522 lung = system: NCI-H522 lung
NCI/ADR-RES ovarian = system: NCI/ADR-RES ovarian
OVCAR-3 ovarian = system: OVCAR-3 ovarian
OVCAR-4 ovarian = system: OVCAR-4 ovarian
OVCAR-8 ovarian = system: OVCAR-8 ovarian
PC-3 prostate = system: PC-3 prostate
RPMI-8226 leukemia = system: RPMI-8226 leukemia
RXF 393 renal = system: RXF 393 renal
SF-268 CNS = system: SF-268 CNS
SF-295 CNS = system: SF-295 CNS
SF-539 CNS = system: SF-539 CNS
SK-MEL-28 melanoma = system: SK-MEL-28 melanoma
SK-MEL-5 melanoma = system: SK-MEL-5 melanoma
SK-OV-3 ovarian = system: SK-OV-3 ovarian
SN12C renal = system: SN12C renal
SNB-19 CNS = system: SNB-19 CNS
SNB-75 CNS = system: SNB-75 CNS
SR leukemia = system: SR leukemia
SW-620 colon = system: SW-620 colon
T-47D breast = system: T-47D breast
TK-10 renal = system: TK-10 renal
U251 glioblastoma = system: U251 glioblastoma
UACC-257 melanoma = system: UACC-257 melanoma
UACC-62 melanoma = system: UACC-62 melanoma
UO-31 renal = system: UO-31 renal

Question: NC(=O)c1ccc2nc(-c3ccc(C4(N)CCC4)cc3)c(-c3ccccc3)n2n1 was tested. Which GI50 ([…]-0 renal) did it give?
Answer: 2.22 µM

Question: And the TGI (786-0 renal)?
Answer: 13.6 µM

Question: What about the GI50 (A498 renal) of the same molecule?
Answer: 0.389 µM

Question: What about the TGI (A498 renal) of the same molecule?
Answer: 10.6 µM

Question: And the GI50 (A549 NSCLC)?
Answer: 5.31 µM

Question: And the TGI (A549 NSCLC)?
Answer: 18.6 µM

Question: And the GI50 (ACHN renal)?
Answer: 11.2 µM

Question: What about the TGI (ACHN renal) of the same molecule?
Answer: 23.3 µM

Question: What about the GI50 (BT-549 breast) of the same molecule?
Answer: 2.01 µM

Question: What about the TGI (BT-549 breast) of the same molecule?
Answer: 15.2 µM

Question: And the GI50 (CAKI-1 renal)?
Answer: 2.54 µM

Question: What about the TGI (CAKI-1 renal) of the same molecule?
Answer: 16.8 µM

Question: And the GI50 (CCRF-CEM leukemia)?
Answer: 0.498 µM

Question: And the TGI (CCRF-CEM leukemia)?
Answer: 10.7 µM

Question: And the GI50 (COLO 205 colon)?
Answer: 2.28 µM

Question: What about the TGI (COLO 205 colon) of the same molecule?
Answer: 16.9 µM

Question: What about the GI50 (DU-145 prostate) of the same molecule?
Answer: 11.8 µM

Question: And the TGI (DU-145 prostate)?
Answer: 24.6 µM

Question: What about the GI50 (EKVX NSCLC) of the same molecule?
Answer: 5.35 µM

Question: And the TGI (EKVX NSCLC)?
Answer: 20.3 µM

Question: And the GI50 (HCC-2998 colon)?
Answer: 11.2 µM

Question: What about the TGI (HCC-2998 colon) of the same molecule?
Answer: 23.2 µM

Question: What about the GI50 (HCT-116 colon) of the same molecule?
Answer: 5.69 µM

Question: And the TGI (HCT-116 colon)?
Answer: 18.9 µM

Question: And the GI50 (HCT-15 colon)?
Answer: 11.9 µM

Question: What about the TGI (HCT-15 colon) of the same molecule?
Answer: 24.4 µM

Question: And the GI50 (HL-60(TB) leukemia)?
Answer: 4.26 µM

Question: What about the TGI (HL-60(TB) leukemia) of the same molecule?
Answer: 17 µM

Question: What about the GI50 (HOP-62 NSCLC) of the same molecule?
Answer: 12.1 µM

Question: What about the TGI (HOP-62 NSCLC) of the same molecule?
Answer: 24.5 µM

Question: And the GI50 (HOP-92 NSCLC)?
Answer: 5.02 µM

Question: And the TGI (HOP-92 NSCLC)?
Answer: 18.7 µM

Question: And the GI50 (HS 578T breast)?
Answer: 1.78 µM

Question: And the TGI (HS 578T breast)?
Answer: 11.8 µM

Question: What about the GI50 (HT29 colon) of the same molecule?
Answer: 2.62 µM

Question: What about the TGI (HT29 colon) of the same molecule?
Answer: 17.9 µM

Question: What about the GI50 (IGROV1 ovarian) of the same molecule?
Answer: 0.25 µM

Question: And the TGI (IGROV1 ovarian)?
Answer: 11.7 µM

Question: And the GI50 (K-562 leukemia)?
Answer: 4.2 µM

Question: And the TGI (K-562 leukemia)?
Answer: 16.2 µM

Question: What about the GI50 (KM12 colon) of the same molecule?
Answer: 7.11 µM

Question: What about the TGI (KM12 colon) of the same molecule?
Answer: 20.4 µM

Question: And the GI50 (LOX IMVI melanoma)?
Answer: 8.43 µM

Question: And the TGI (LOX IMVI melanoma)?
Answer: 20.7 µM

Question: And the GI50 (M14 melanoma)?
Answer: 12.8 µM

Question: And the TGI (M14 melanoma)?
Answer: 25.5 µM

Question: And the GI50 (MALME-3M melanoma)?
Answer: 2.14 µM

Question: What about the TGI (MALME-3M melanoma) of the same molecule?
Answer: 17.1 µM

Question: What about the GI50 (MCF7 breast) of the same molecule?
Answer: 0.125 µM

Question: And the TGI (MCF7 breast)?
Answer: 12.4 µM

Question: What about the GI50 (MDA-MB-231 breast) of the same molecule?
Answer: 11.4 µM

Question: What about the TGI (MDA-MB-231 breast) of the same molecule?
Answer: 23.7 µM

Question: And the GI50 (MDA-MB-435 melanoma)?
Answer: 12.6 µM

Question: What about the TGI (MDA-MB-435 melanoma) of the same molecule?
Answer: 25.2 µM

Question: What about the GI50 (MDA-MB-468 breast) of the same molecule?
Answer: 0.125 µM

Question: And the TGI (MDA-MB-468 breast)?
Answer: 8.31 µM

Question: And the GI50 (MOLT-4 leukemia)?
Answer: 0.305 µM

Question: And the TGI (MOLT-4 leukemia)?
Answer: 1.93 µM

Question: And the GI50 (NCI-H226 lung)?
Answer: 8.96 µM

Question: What about the TGI (NCI-H226 lung) of the same molecule?
Answer: 21.5 µM

Question: What about the GI50 (NCI-H23 lung) of the same molecule?
Answer: 4.85 µM

Question: What about the TGI (NCI-H23 lung) of the same molecule?
Answer: 17.5 µM

Question: What about the GI50 (NCI-H322M lung) of the same molecule?
Answer: 9.27 µM

Question: And the TGI (NCI-H322M lung)?
Answer: 21.6 µM

Question: And the GI50 (NCI-H460 NSCLC)?
Answer: 1.13 µM

Question: And the TGI (NCI-H460 NSCLC)?
Answer: 15.8 µM

Question: What about the GI50 (NCI-H522 lung) of the same molecule?
Answer: 13.7 µM

Question: What about the TGI (NCI-H522 lung) of the same molecule?
Answer: 26.6 µM

Question: What about the GI50 (NCI/ADR-RES ovarian) of the same molecule?
Answer: 15.3 µM

Question: What about the TGI (NCI/ADR-RES ovarian) of the same molecule?
Answer: 29.3 µM

Question: And the GI50 (OVCAR-3 ovarian)?
Answer: 0.683 µM

Question: What about the TGI (OVCAR-3 ovarian) of the same molecule?
Answer: 18 µM

Question: And the GI50 (OVCAR-4 ovarian)?
Answer: 14.6 µM

Question: And the TGI (OVCAR-4 ovarian)?
Answer: 28.2 µM

Question: What about the GI50 (OVCAR-8 ovarian) of the same molecule?
Answer: 12.8 µM

Question: What about the TGI (OVCAR-8 ovarian) of the same molecule?
Answer: 25.5 µM

Question: And the GI50 (PC-3 prostate)?
Answer: 0.25 µM

Question: And the TGI (PC-3 prostate)?
Answer: 12.8 µM

Question: And the GI50 (RPMI-8226 leukemia)?
Answer: 2.39 µM

Question: What about the TGI (RPMI-8226 leukemia) of the same molecule?
Answer: 10.3 µM

Question: And the GI50 (RXF 393 renal)?
Answer: 1.6 µM

Question: What about the TGI (RXF 393 renal) of the same molecule?
Answer: 10.7 µM

Question: What about the GI50 (SF-268 CNS) of the same molecule?
Answer: 12.3 µM

Question: What about the TGI (SF-268 CNS) of the same molecule?
Answer: 24.8 µM

Question: What about the GI50 (SF-295 CNS) of the same molecule?
Answer: 0.944 µM

Question: And the TGI (SF-295 CNS)?
Answer: 11 µM

Question: And the GI50 (SF-539 CNS)?
Answer: 3.59 µM

Question: And the TGI (SF-539 CNS)?
Answer: 16.6 µM

Question: What about the GI50 (SK-MEL-28 melanoma) of the same molecule?
Answer: 6.42 µM

Question: What about the TGI (SK-MEL-28 melanoma) of the same molecule?
Answer: 20.2 µM

Question: And the GI50 (SK-MEL-5 melanoma)?
Answer: 3.81 µM

Question: And the TGI (SK-MEL-5 melanoma)?
Answer: 16.3 µM

Question: What about the GI50 (SK-OV-3 ovarian) of the same molecule?
Answer: 0.538 µM

Question: What about the TGI (SK-OV-3 ovarian) of the same molecule?
Answer: 12.7 µM

Question: And the GI50 (SN12C renal)?
Answer: 8.08 µM

Question: And the TGI (SN12C renal)?
Answer: 20.9 µM

Question: What about the GI50 (SNB-19 CNS) of the same molecule?
Answer: 13 µM

Question: And the TGI (SNB-19 CNS)?
Answer: 25.9 µM

Question: What about the GI50 (SNB-75 CNS) of the same molecule?
Answer: 1.25 µM

Question: What about the TGI (SNB-75 CNS) of the same molecule?
Answer: 14.6 µM

Question: What about the GI50 (SR leukemia) of the same molecule?
Answer: 0.23 µM

Question: What about the TGI (SR leukemia) of the same molecule?
Answer: 0.99 µM

Question: And the GI50 (SW-620 colon)?
Answer: 15.8 µM

Question: What about the TGI (SW-620 colon) of the same molecule?
Answer: 29.3 µM

Question: And the GI50 (T-47D breast)?
Answer: 0.0282 µM

Question: What about the TGI (T-47D breast) of the same molecule?
Answer: 2.99 µM

Question: And the GI50 (TK-10 renal)?
Answer: 5.7 µM

Question: And the TGI (TK-10 renal)?
Answer: 20.5 µM

Question: And the GI50 (U251 glioblastoma)?
Answer: 10.4 µM

Question: What about the TGI (U251 glioblastoma) of the same molecule?
Answer: 22.2 µM

Question: What about the GI50 (UACC-257 melanoma) of the same molecule?
Answer: 11.3 µM

Question: What about the TGI (UACC-257 melanoma) of the same molecule?
Answer: 23.4 µM

Question: And the GI50 (UACC-62 melanoma)?
Answer: 3.01 µM

Question: And the TGI (UACC-62 melanoma)?
Answer: 16.4 µM

Question: And the GI50 (UO-31 renal)?
Answer: 2.91 µM

Question: And the TGI (UO-31 renal)?
Answer: 16 µM

Reference: PubChem BioAssay (NCI)
